Results from patent US11279761B2, “Anti-PD-L1 combinations for treating tumors” (BIRDIE BIOPHARMACEUTICALS, INC., priority 2014, dated 2022).

Legend:
C26 tumor = experiment: Combinational efficacy of anti-PD-L1 and R848 in PD-L1 expressed C26 tumor model (Study No. R-BDB001-0008); type: in vivo; conditions: C26 s.c. in BALB/c mice; single agent, 3-week period
Description: The objective of this study was to determine the single or combinational efficacy of R848 and anti-PD-L1 monoclonal antibody in the C26 tumor model in immune-competent mouse. C26 cells were inoculated by subcutaneous injection into the right flank of BALB/c mice on Day 0. Tumors were monitored until they reached a mean tumor volume of between 60 and 100 mm3, inclusive. Mice were administered, over a 3-week period, 10 mg/kg IV (via tail vein) of rat anti-mouse PD-L1 monoclonal antibody alone twice weekly, 0.08 mg/kg of R848 alone once weekly, or a combination of anti-PD-L1 antibody and R848.
The differences in tumor inhibition by the combination treatment compared to that of each component is shown graphically (FIG. 6)) and was highly significant (p=0.0029, anti-PDL1 and R848 combined versus R848 alone; p=0.0074, anti-PDL1 and R848 combined versus anti-PDL1 alone).

[1] = system: mouse colon adenocarcinoma 26 (C26) tumor; experiment: Combinational efficacy of R848 and anti-PD-1 antibody in PD-L1 expressed C26 tumor model; type: in vivo; conditions: C26 s.c. in BALB/c mice; single agent, three-week period
Description: The objective of this study was to determine the single or combinational efficacy of R848 and anti-PD-1 monoclonal antibody in the mouse colon adenocarcinoma 26 (C26) tumor model in immune-competent mouse. C26 cells were inoculated by subcutaneous injection into the right flank of BALB/c mice on Day 0. Tumors were monitored until they reached a mean tumor volume of between 60 and 100 mm3. Mice were then administered over a three-week period 10 mg/kg IV (via tail vein) of rat anti-mouse PD-1 monoclonal antibody alone twice weekly, 0.08 mg/kg of R848 alone once weekly, or a combination of anti-PD-1 antibody and R848. Tumor volumes were recorded twice weekly over the course of the study and the mice were observed regularly. Tumor-bearing mice (treatment, control) were sacrificed at Day 26 or if they became moribund before the tumor volume reached 2000 mm3. […] The differences in tumor inhibition by the combination treatment compared to that of each component is shown graphically (FIG. 5) and was highly significant (p=0.0002, anti-PD-1 and R848 combined versus R848 alone; p=0.0063 anti-PD-1 and R848 combined versus anti-PD-1 alone).

CCOCc1nc2c(N)nc3ccccc3c2n1CC(C)(C)O [R848, 4-amino-2-(ethoxymethyl)-a,a-di-methyl-1H-imidazo[4,5-c]quinoline-1-ethanol]
inhibition in tumor growth (C26 tumor): Limited inhibition | inhibition in tumor growth [1]: Limited inhibition
